Patent US4468511A, “C-20- And C-23-Modified macrolide derivatives” (Eli Lilly and Company, priority 1983, dated 1984)
In brackets after ≈: the same amount, converted by molar mass. Like-named read-outs stand apart in the source and are kept apart here.

Columns and labels:
[1] = system: Streptococcus Group D X66; experiment: MIC, standard agar-dilution assay; type: cell-based
Protocol: (§1) Certain of the derivatives are active against some gram-negative bacteria, such as Pasteurella species. The MIC's in Table II were determined by standard agar-dilution assays. The MIC's in Table III were obtained using a conventional broth-dilution microtiter test.

[2] = system: Escherichia coli EC14; experiment: MIC, standard agar-dilution assay; type: cell-based; settings: agar-dilution; Escherichia coli EC14; read-out: MIC
Protocol: as §1

[3] = system: Escherichia coli TEM; experiment: MIC, standard agar-dilution assay; type: cell-based; settings: agar-dilution; Escherichia coli TEM; read-out: MIC
Protocol: as §1

[4] = system: Klebsiella pneumoniae X26; experiment: MIC, standard agar-dilution assay; type: cell-based; settings: Klebsiella pneumoniae, X26
Protocol: as §1

[5] = system: Streptococcus pyogenes 9960; experiment: MIC, standard agar-dilution assay; type: cell-based
Protocol: as §1

[6] = system: Staphylococcus aureus V41; experiment: MIC, standard agar-dilution assay; type: cell-based
Protocol: as §1

[7] = system: Streptococcus pyogenes C203; experiment: MIC, standard agar-dilution assay; type: cell-based
Protocol: as §1

[8] = system: Streptococcus pneumoniae Park I; experiment: MIC, standard agar-dilution assay; type: cell-based; settings: Streptococcus pneumoniae
Protocol: as §1

[9] = system: Klebsiella pneumoniae KAE; experiment: MIC, standard agar-dilution assay; type: cell-based; settings: agar-dilution; Klebsiella pneumoniae KAE; read-out: MIC
Protocol: as §1

[10] = system: Staphylococcus aureus X1.1; experiment: MIC, standard agar-dilution assay; type: cell-based; settings: agar-dilution; Staphylococcus aureus X1.1; read-out: MIC
Protocol: as §1

[11] = system: Pasteurella hemolytica 41D; experiment: MIC, conventional broth-dilution microtiter test; type: cell-based; settings: broth-dilution microtiter; Pasteurella hemolytica 41D; read-out: MIC
Protocol: as §1

[12] = system: Mycoplasma gallisepticum 41313; experiment: MIC, conventional broth-dilution microtiter test; type: cell-based; settings: Mycoplasmoides gallisepticum; broth-dilution microtiter; Mycoplasma gallisepticum 41313, Resistant strain; read-out: MIC
Protocol: as §1

[13] = system: Pasteurella multocida 17E; experiment: MIC, conventional broth-dilution microtiter test; type: cell-based; settings: broth-dilution microtiter; Pasteurella multocida 17E, Bovine isolate; read-out: MIC
Protocol: as §1

[14] = system: Pasteurella multocida 60A; experiment: MIC, conventional broth-dilution microtiter test; type: cell-based
Protocol: as §1

[15] = system: Pasteurella multocida 68C; experiment: MIC, conventional broth-dilution microtiter test; type: cell-based
Protocol: as §1

[16] = system: Mycoplasma synoviae; experiment: MIC, conventional broth-dilution microtiter test; type: cell-based; settings: Mycoplasmopsis synoviae
Protocol: as §1

[17] = system: Streptococcus sp. 80; experiment: MIC, conventional broth-dilution microtiter test; type: cell-based; settings: broth-dilution microtiter; Streptococcus sp. 80; read-out: MIC
Protocol: as §1

[18] = system: Mycoplasma gallisepticum 34159; experiment: MIC, conventional broth-dilution microtiter test; type: cell-based; settings: Mycoplasmoides gallisepticum; broth-dilution microtiter; Mycoplasma gallisepticum 34159, Resistant strain; read-out: MIC
Protocol: as §1

[19] = system: Staphylococcus aureus; experiment: MIC, conventional broth-dilution microtiter test; type: cell-based; settings: broth-dilution microtiter, read-out: MIC
Protocol: as §1

[20] = system: Pasteurella hemolytica 23C; experiment: MIC, conventional broth-dilution microtiter test; type: cell-based; settings: broth-dilution microtiter; Pasteurella hemolytica 23C; read-out: MIC
Protocol: as §1

[21] = system: Pasteurella multocida 40G; experiment: MIC, conventional broth-dilution microtiter test; type: cell-based
Protocol: as §1

[22] = system: Mycoplasma gallisepticum; experiment: MIC, conventional broth-dilution microtiter test; type: cell-based; settings: Mycoplasmoides gallisepticum; broth-dilution microtiter; Mycoplasma gallisepticum; read-out: MIC
Protocol: as §1

[23] = system: Mycoplasma hyorhinis; experiment: MIC, conventional broth-dilution microtiter test; type: cell-based; settings: broth-dilution microtiter; Mycoplasma hyorhinis; read-out: MIC
Protocol: as §1

[24] = system: Pasteurella hemolytica 22C; experiment: MIC, conventional broth-dilution microtiter test; type: cell-based; settings: broth-dilution microtiter; Pasteurella hemolytica 22C; read-out: MIC
Protocol: as §1

[25] = system: Pasteurella multocida 22A; experiment: MIC, conventional broth-dilution microtiter test; type: cell-based; settings: broth-dilution microtiter; Pasteurella multocida 22A; read-out: MIC
Protocol: as §1

[26] = system: Staphylococcus epidermidis EPI2; experiment: MIC, standard agar-dilution assay; type: cell-based
Protocol: (§2) The MIC's in Table II were determined by standard agar-dilution assays. The MIC's in Table III were obtained using a conventional broth-dilution microtiter test.

[27] = system: Staphylococcus aureus X400; experiment: MIC, standard agar-dilution assay; type: cell-based; settings: agar-dilution; Staphylococcus aureus X400, Methicillin-resistant strain; read-out: MIC
Protocol: as §2

[28] = system: Haemophilus influenzae C.L.; experiment: MIC, standard agar-dilution assay; type: cell-based; settings: Haemophilus influenzae
Protocol: as §2

[29] = system: Streptococcus pyogenes C203; experiment: Protection of mice experimentally infected with S. pyogenes C203; type: in vivo;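 note: two doses given 1 and 4 hours after infection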
Protocol: Some of the derivatives of this invention have shown in vivo antimicrobial activity against experimentally-induced infections in laboratory animals. When two doses of test compound were administered to mice experimentally infected with S. pyogenes C203, the activity observed was measured as an ED50 value [effective dose in mg/kg to protect 50% of the test animals: see Warren Wick, et al., J. Bacteriol. 81, 233-235 (1961)].

[30] = system: Staphylococcus epidermidis EPI1; experiment: microbe, parasite or virus in culture; type: cell-based; settings: agar-dilution; Staphylococcus epidermidis EPI1; read-out: MIC
Protocol: as §2

[31] = system: Staphylococcus aureus S13E; experiment: microbe, parasite or virus in culture; type: cell-based
Protocol: as §2

[32] = system: Haemophilus influenzae 76; experiment: MIC, standard agar-dilution assay; type: cell-based; settings: Haemophilus influenzae, 76
Protocol: as §2

For `CCC1OC(=O)CC(O)C(C)C(OC2OC(C)C(OC3CC(C)(O)C(O)C(C)O3)C(N(C)C)C2O)C(CCNCc2ccccc2)CC(C)C(=O)C=CC(C)=CC1C` (centres unmarked) [Compound 25, 20-N-Benzylamino-20-deoxy-20-dihydro-DMOT], the MIC [1] was 8 mg/L (≈ 9.79 µM), the MIC [2] was greater than 128 mg/L and the MIC [3] was greater than 128 mg/L. The MIC [4] was 64 mg/L (≈ 78.3 µM), the MIC [5]; 9960 was 8 mg/L (≈ 9.79 µM) and the MIC ([6]; agar-dilution, Staphylococcus aureus V41, Penicillin-resistant strain, read-out: MIC) was 4 mg/L (≈ 4.9 µM). For the same molecule, the MIC ([7]; Streptococcus pyogenes, C203) was 2 mg/L (≈ 2.45 µM), the MIC [8] was 1 mg/L (≈ 1.22 µM) and the MIC [9] was greater than 128 mg/L. The MIC [10] was 4 mg/L (≈ 4.9 µM), the MIC [11] was greater than 50 mg/L and the MIC [12] was greater than 50 mg/L. The MIC [13] was greater than 50 mg/L, the MIC ([14]; Pasteurella multocida, 60A) was 50 mg/L (≈ 61.2 µM) and the MIC ([15]; Pasteurella multocida, 68C) was 50 mg/L (≈ 61.2 µM). The MIC [16] was 50 mg/L (≈ 61.2 µM), the MIC [17] was 6.25 mg/L (≈ 7.65 µM) and the MIC [18] was greater than 50 mg/L. The MIC [19] was 12.5 mg/L (≈ 15.3 µM), the MIC [20] was greater than 50 mg/L and the MIC ([21]; Pasteurella multocida, 40G) was 50 mg/L (≈ 61.2 µM). The MIC [22] was 1.56 mg/L (≈ 1.91 µM), the MIC [23] was greater than 50 mg/L and the MIC [24] was greater than 50 mg/L. It also gave an MIC [25] greater than 50 mg/L, an MIC ([26]; agar-dilution, Staphylococcus epidermidis EPI2, read-out: MIC) of 4 mg/L (≈ 4.9 µM) and an MIC [27] of 4 mg/L (≈ 4.9 µM). For the same molecule, the MIC [28] was 64 mg/L (≈ 78.3 µM), the ED50 ([29]; C203, po, read-out: ED50 Oral) was greater than 100 mg/kg and the ED50 ([29]; C203, sc, read-out: ED50 Subcutaneous) was greater than 25 mg/kg. It also gave an MIC [30] of 4 mg/L (≈ 4.9 µM) and an MIC [31] of 8 mg/L (≈ 9.79 µM).

With `CCC1OC(=O)CC(O)C(C)C(OC2OC(C)C(O)C(N(C)C)C2O)C(CCNC)CC(C)C(=O)C=CC(C)=CC1CO` (centres unmarked) [Compound 3, 20-N-Methylamino-20-deoxy-20-dihydro-OMT] the MIC ([1]; agar-dilution, Streptococcus Group D X66, read-out: MIC) was greater than 128 mg/L, the MIC [2] was greater than 128 mg/L and the MIC [3] was 128 mg/L (≈ 209 µM). For the same molecule, the MIC [4] was 64 mg/L (≈ 104 µM), the MIC ([5]; agar-dilution, Streptococcus 9960, read-out: MIC) was greater than 128 mg/L and the MIC ([6]; Staphylococcus aureus, V41) was 64 mg/L (≈ 104 µM). It also gave an MIC ([7]; agar-dilution, Streptococcus pyogenes C203, read-out: MIC) of 128 mg/L (≈ 209 µM), an MIC [8] of 16 mg/L (≈ 26.1 µM) and an MIC [9] greater than 128 mg/L. The MIC [10] was 32 mg/L (≈ 52.2 µM), the MIC [11] was 50 mg/L (≈ 81.6 µM) and the MIC [13] was 50 mg/L (≈ 81.6 µM). For the same molecule, the MIC ([14]; broth-dilution microtiter, Pasteurella multocida 60A, Avian isolate, read-out: MIC) was 50 mg/L (≈ 81.6 µM), the MIC ([15]; broth-dilution microtiter, Pasteurella multocida 68C, read-out: MIC) was 25 mg/L (≈ 40.8 µM) and the MIC ([16]; broth-dilution microtiter, Mycoplasma synoviae, read-out: MIC) was 25 mg/L (≈ 40.8 µM). The MIC [17] was 50 mg/L (≈ 81.6 µM), the MIC [18] was greater than 50 mg/L and the MIC [19] was 50 mg/L (≈ 81.6 µM). The MIC [20] was 50 mg/L (≈ 81.6 µM), the MIC ([21]; broth-dilution microtiter, Pasteurella multocida 40G, read-out: MIC) was 50 mg/L (≈ 81.6 µM) and the MIC [22] was 50 mg/L (≈ 81.6 µM). For the same molecule, the MIC [23] was greater than 50 mg/L, the MIC [24] was 50 mg/L (≈ 81.6 µM) and the MIC [25] was 50 mg/L (≈ 81.6 µM). It also gave an MIC ([26]; Staphylococcus epidermidis, EPI2) of 64 mg/L (≈ 104 µM), an MIC [27] of 128 mg/L (≈ 209 µM) and an MIC [28] of 128 mg/L (≈ 209 µM). It also gave an MIC [32] of 128 mg/L (≈ 209 µM), an MIC [30] of 32 mg/L (≈ 52.2 µM) and an MIC [31] of 64 mg/L (≈ 104 µM).
